For orientation: IC50 means the concentration that gives 50% inhibition.

The target of this assay is T1, prostanoid EP3 receptors (Homo sapiens, UniProt P43115).
T1 sequence (P43115 1-390): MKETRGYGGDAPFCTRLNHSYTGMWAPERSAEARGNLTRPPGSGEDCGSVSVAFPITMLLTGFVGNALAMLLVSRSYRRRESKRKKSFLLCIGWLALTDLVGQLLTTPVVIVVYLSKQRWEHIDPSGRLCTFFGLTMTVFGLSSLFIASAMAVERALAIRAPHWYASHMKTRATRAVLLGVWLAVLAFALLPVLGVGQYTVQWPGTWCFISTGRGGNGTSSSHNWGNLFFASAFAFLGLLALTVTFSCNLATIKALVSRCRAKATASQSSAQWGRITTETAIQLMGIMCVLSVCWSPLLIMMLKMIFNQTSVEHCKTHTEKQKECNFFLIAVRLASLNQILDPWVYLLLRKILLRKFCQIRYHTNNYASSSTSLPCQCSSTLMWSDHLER
The assay can be described thus: binding on prostanoid EP3 receptors (method of Abramovitz et al.). The settings on record: read-out: Activity (EP3 receptor binding, IC50 class). Here is the method:
The compounds of the invention were assayed for their binding on prostanoid EP3 receptors according to the method of Abramovitz et al. [Bioch. Biophys.
Consider `Cc1cn(Cc2ccc(F)c(F)c2)c2c(C=CC(=O)NS(=O)(=O)c3ccc(F)c(F)c3)cc(F)cc12` [Compound P315], for which the IC50 was less than 1000 nM. Turning to `Cn1cc(C=CC(=O)NS(=O)(=O)c2ccc(F)cc2)c2c(Oc3ccc4ccccc4c3)cccc21` [Compound P351], the concentration for half-maximal inhibition (IC50) is less than 1000 nM. On to `CC1C(=O)N(Cc2ccc3ccccc3c2)c2c(C=CC(=O)NS(=O)(=O)c3cccs3)cccc21` (stereo not shown) [Compound P059], for which the IC50 is less than 1000 nM. The value for `Cn1cc(C=CC(=O)NS(=O)(=O)c2c(F)cccc2F)c2c(Oc3ccc4ccccc4c3)cccc21` [Compound P360] was less than 1000 nM. As to `O=C(COc1cccc2[nH]cc(S(=O)(=O)c3ccc(Cl)c(Cl)c3)c12)NS(=O)(=O)c1cc(Cl)c(Cl)s1` [Compound P204], the concentration for half-maximal inhibition (IC50) is less than 1000 nM. As to `Cc1cn(CCC(=O)NS(=O)(=O)c2ccc(F)c(F)c2)c2c(Oc3ccc4ccccc4c3)cc(F)cc12` [Compound P379], the IC50 is less than 1000 nM. For the molecule `Cc1cn(Cc2cn3ccccc3n2)c2c(C=CC(=O)NS(=O)(=O)c3cccc(F)c3)cc(F)cc12` [Compound P401], the IC50 was less than 1000 nM. The value for `Cc1ccc(CN2C(=O)COc3cccc(OCC(=O)NS(=O)(=O)c4cccs4)c32)cc1C` [Compound P020] was 1000 to 10000 nM; that for `Cc1nc2cccc(OCC(=O)NS(=O)(=O)c3cccs3)c2n1Cc1ccc2ccccc2c1` [Compound P037, Thiophen-2-sulfonic acid [2-(2-methyl-3-naphthalen-2-ylmethyl-3H-benzoimidazol-4-yloxy)-acetyl] amide] was 1000 to 10000 nM. The value for `CN1C(=O)C(Oc2ccc3ccccc3c2)c2c(/C=C/C(=O)NS(=O)(=O)c3cc(Cl)c(Cl)s3)cccc21` (stereo not shown) [Compound P265, 4,5-dichloro-thiophene-2-sulfonic acid {(E)-3-[1-methyl-3-(naphthalen-2-yloxy)-2-oxo-2,3-dihydro-1H-indol-4-yl]-acryloyl}-amide] was less than 1000 nM. Consider `Cc1cn(CCC(=O)NS(=O)(=O)c2cccc(Cl)c2)c2c(Oc3ccc(Cl)cc3Cl)cc(F)cc12` [Compound P385], for which the IC50 is less than 1000 nM. As to `O=C(C=Cc1cc(F)cc2ccn(Cc3ccc(Cl)cc3Cl)c12)NS(=O)(=O)c1cccs1` [Compound P061], the IC50 is less than 1000 nM. The value for `Cc1cn(Cc2ccccc2Cl)c2c(/C=C/C(=O)NS(=O)(=O)c3cc(Cl)c(Cl)s3)cccc12` [Compound P123] was less than 1000 nM. The value for `Cn1cc(C=CC(=O)NS(=O)(=O)c2ccc(F)cc2F)c2c(Oc3ccc4ccccc4c3)cccc21` [Compound P358] was less than 1000 nM. Consider `O=C(C=Cc1cccc2ccn(Cc3ccc4ccccc4c3)c12)NS(=O)(=O)c1cccs1` [Compound P001], for which the IC50 was less than 1000 nM. On to `Cn1cc(C=CC(=O)NS(=O)(=O)c2ccc(F)c(F)c2)c2c(Oc3ccc(Cl)c(Cl)c3)cccc21` [Compound P293], for which the concentration for half-maximal inhibition (IC50) is less than 1000 nM. The same measure for `CC12CCCC(C=CC(=O)NS(=O)(=O)c3ccc(OC(F)(F)F)cc3)=C1N(Cc1ccc3ccccc3c1)C(=O)C2` (stereo not shown) [Compound P269]: less than 1000 nM; for `Cc1ccc(C)c(Cn2cc(C)c3cccc(/C=C/C(=O)NS(=O)(=O)c4cc(Cl)c(Cl)s4)c32)c1` [Compound P138]: less than 1000 nM. The value for `CC(=O)c1cn(Cc2ccc(Cl)cc2Cl)c2c(C=CC(=O)NS(=O)(=O)c3cccs3)cccc12` [Compound P085] was less than 1000 nM. The value for `O=C(COc1cccc2[nH]cc(Sc3ncccn3)c12)NS(=O)(=O)c1cc(Cl)c(Cl)s1` [Compound P211] was less than 1000 nM; that for `Cc1cn(CCC(=O)NS(=O)(=O)c2cc(F)c(F)cc2F)c2c(Oc3ccc(Cl)cc3Cl)cc(F)cc12` [Compound P382] was less than 1000 nM. On to `O=C(C=Cc1cccc2c1N(Cc1ccc3ccccc3c1)C(=O)C2(F)F)NS(=O)(=O)c1cccs1` [Compound P218], for which the 50% inhibitory concentration (IC50) is less than 1000 nM. For the molecule `CC12CCCC(C=CC(=O)NS(=O)(=O)c3cccc(Cl)c3)=C1N(Cc1ccc(Cl)cc1Cl)C(=O)C2` (stereo not shown) [Compound P281], the concentration for half-maximal inhibition (IC50) was less than 1000 nM. The same measure for `Cc1cn(CCC(=O)NS(=O)(=O)c2cc(F)c(F)cc2F)c2c(Oc3ccc4ccccc4c3)cc(F)cc12` [Compound P378, 2,4,5-Trifluoro-N-{3-[5-fluoro-3-methyl-7-(naphthalen-2-yloxy)-indol-1-yl]-propionyl}-benzenesulfonamide]: less than 1000 nM; for `CC(C)c1cn(Cc2ccc(Cl)cc2Cl)c2c(CCC(=O)NS(=O)(=O)c3cccs3)cccc12` [Compound P091]: 1000 to 10000 nM; for `CC12CCCC(C=CC(=O)NS(=O)(=O)c3ccc(F)c(F)c3)=C1N(Cc1cccc(Cl)c1Cl)C(=O)C2` (stereo not shown) [Compound P297]: less than 1000 nM. The same measure for `O=C(CNc1cccc2c1N(Cc1ccc3ccccc3c1)C(=O)CO2)NS(=O)(=O)c1cccs1` [Compound P049, Thiophen-2-sulfonic acid[2-(4-naphthalen-2-ylmethyl-3-oxo-3,4-dihydro-2H-benzo[1,4]oxazin-5-ylamino)-acetyl]-amide]: 1000 to 10000 nM. The value for `Cc1cn(Cc2ccc3ccccc3c2)c2c(/C=C/C(=O)N(C)S(=O)(=O)c3cc(Cl)c(Cl)s3)cc(F)cc12` [Compound P076] was less than 1000 nM; that for `CN1C(=O)C(Nc2ccc(Cl)c(Cl)c2)c2c(C=CC(=O)NS(=O)(=O)c3cc(Cl)c(Cl)s3)cccc21` (stereo not shown) [Compound P271] was less than 1000 nM. As to `CC(=O)CC1(O)C(=O)N(Cc2ccc(Cl)cc2Cl)c2c(C=CC(=O)NS(=O)(=O)c3cc(Cl)c(Cl)s3)cccc21` (stereo not shown) [Compound P128], the half-inhibitory concentration (IC50) was less than 1000 nM. The value for `Cn1cc(/C=C/C(=O)NS(=O)(=O)c2ccc(F)c(F)c2)c2c(Oc3ccc4ccccc4c3)cccc21` [Compound P334] was less than 1000 nM; that for `O=C(CCc1cccc2c1N(Cc1ccc3ccccc3c1)C(=O)C21OCCO1)NS(=O)(=O)c1cccs1` [Compound P097] was less than 1000 nM. On to `COc1cc(Cn2cc(C)c3cc(F)cc(C=CC(=O)NS(=O)(=O)c4cc(F)c(F)cc4F)c32)cc(OC)c1` [Compound P375], for which the concentration for half-maximal inhibition (IC50) was less than 1000 nM. The value for `Cc1cn(Cc2ccc(F)cc2)c2c(C=CC(=O)NS(=O)(=O)c3cc(F)c(F)cc3F)cc(F)cc12` [Compound P312] was less than 1000 nM; that for `Cn1cc(C=CC(=O)NS(=O)(=O)c2cc(Cl)c(Cl)s2)c2c(Oc3ccc(F)cc3Cl)cccc21` [Compound P342] was less than 1000 nM. The same measure for `Cc1cn(CC2CCOCC2)c2c(/C=C/C(=O)NS(=O)(=O)c3cc(Cl)c(Cl)s3)cccc12` [Compound P144]: less than 1000 nM. Consider `Cc1cn(Cc2cn3ccccc3n2)c2c(C=CC(=O)NS(=O)(=O)c3ccc(Cl)cc3)cc(F)cc12` [Compound P405], for which the IC50 was less than 1000 nM. The value for `Cn1nnnc1S(=O)(=O)c1c[nH]c2cccc(OCC(=O)NS(=O)(=O)c3cc(Cl)c(Cl)s3)c12` [Compound P239] was less than 1000 nM; that for `Cn1cc(C=CC(=O)NS(=O)(=O)c2cc(Cl)c(Cl)s2)c2c(Oc3ccc(F)c(F)c3)cccc21` [Compound P320] was less than 1000 nM; that for `O=C(COc1cccc2c1N(Cc1ccc3ccccc3c1)C(=O)CO2)NS(=O)(=O)c1cccs1` [Compound P018] was less than 1000 nM. The value for `CC12CCCC(/C=C/C(=O)NS(=O)(=O)c3cc(Cl)c(Cl)s3)=C1N(Cc1ccc(F)c(F)c1)C(=O)C2` (stereo not shown) [Compound P264] was less than 1000 nM; that for `O=C(COc1cccc2c1C(F)(Cc1ccc3ccccc3c1)C(=O)N2)NS(=O)(=O)c1cc(Cl)c(Cl)s1` (stereo not shown) [Compound P157] was less than 1000 nM. In the case of `CN1C(=O)C(=Nc2ccc3ccccc3c2)c2c(C=CC(=O)NS(=O)(=O)c3cc(Cl)c(Cl)s3)cccc21` [Compound P245], the IC50 is less than 1000 nM. Consider `Cn1cc(C=CC(=O)NS(=O)(=O)c2cc(Cl)cc(Cl)c2)c2c(Oc3ccc4ccccc4c3)cccc21` [Compound P357], for which the concentration for half-maximal inhibition (IC50) was less than 1000 nM. The same measure for `O=C(COc1cccc2[nH]cc(Sc3ccc4ccccc4c3)c12)NS(=O)(=O)c1ccccc1Cl` [Compound P183]: less than 1000 nM; for `Cc1cn(Cc2ccc(Cl)c(Cl)c2)c2c(/C=C/C(=O)NS(=O)(=O)c3cc(Cl)c(Cl)s3)cccc12` [Compound P118]: less than 1000 nM.

Consider `O=C(COc1cccc2oc(=O)n(Cc3ccc(Cl)c(Cl)c3)c12)NS(=O)(=O)c1cccs1` [Compound P051], for which the IC50 was less than 1000 nM. Take `Cn1cc(C=CC(=O)NS(=O)(=O)c2ccc(Cl)c(Cl)c2)c2c(Oc3ccc4ccccc4c3)cccc21` [Compound P355]: the IC50 was less than 1000 nM. Turning to `O=C(CN1CCCc2cccc(OCc3ccc4ccccc4c3)c21)NS(=O)(=O)c1cccs1` [Compound P015], the half-inhibitory concentration (IC50) is 1000 to 10000 nM. The same measure for `Cc1cn(Cc2cc(F)cc3c2OCOC3)c2c(/C=C/C(=O)NS(=O)(=O)c3cccs3)cccc12` [Compound P102]: less than 1000 nM; for `COc1ccc(Br)cc1S(=O)(=O)NC(=O)COc1cccc2oc(=O)n(Cc3ccc4ccccc4c3)c12` [Compound P047]: less than 1000 nM. Take `CC12CCCC(C=CC(=O)NS(=O)(=O)c3cc(Cl)cc(Cl)c3)=C1N(Cc1ccc(F)c(F)c1)C(=O)C2` (stereo not shown) [Compound P266]: the half-maximal inhibitory concentration (IC50) was less than 1000 nM. The same measure for `Cn1c(Sc2c[nH]c3cccc(OCC(=O)NS(=O)(=O)c4cc(Cl)c(Cl)s4)c23)nc2ccccc21` [Compound P195]: less than 1000 nM; for `O=C(COc1cccc2c1N(Cc1ccccc1)C(=O)CO2)NS(=O)(=O)c1cccs1` [Compound P022]: 1000 to 10000 nM; for `Cc1ccc(CN2C(=O)COc3cccc(OCC(=O)NS(=O)(=O)c4cccs4)c32)cc1` [Compound P023]: 1000 to 10000 nM.

The values are drawn from patent US7598397B2, “Sulfonamide peri-substituted bicyclics for occlusive artery disease” (deCODE genetics ehf, priority 2004, dated 2009).
